System: Erdnußlectin (Arachis Hypogea)
Assay: Inhibition of peanut lectin haemagglutination of neuraminidase-treated erythrocytes
Format: cell-based
Settings: compound at 0,5 mg/ml; erythrocytes as 2,5% suspension; lectin titer 2-^8
Protocol: Inhibition von Erdnußlectin (Arachis Hypogea) mit Verbindung 29
Die Hämagglutination von Neuraminidase(VCN)-behandelten Erythrozyten (als 2,5%-ige Suspension) mit Erdunßlectin (Titer 2-^8) wurde vollständig mit Verbindung 29 (0,5 mg/ml) inhibiert.

## CC(=O)N[C@H]1[C@@H](OC(=O)N[C@@H](CO)C(=O)NCCCCCC(=O)O)O[C@H](CO)[C@H](O)[C@@H]1O[C@@H]1O[C@H](CO)[C@H](O)[C@H](O)[C@H]1O [Verbindung 29, N-((2-Acetamido-2-desoxy-3-0-(8-D-galactopyranosyl)-alpha-D-galactopyranosyl)-oxycarbonyl)-L-seryl-S-carboxy-pentylamid]
  Hämagglutination von Neuraminidase(VCN)-behandelten Erythrozyten mit Erdunßlectin inhibiert: vollständig
